In brackets after ≈: the same amount, converted by molar mass. Like-named read-outs stand apart in the source and are kept apart here. Starred links: 1 amine or outer side, 2 acyl side, 3 side chain; linkers in the order of their positions; H or OH if unused. Positions of bridges follow the written chain, without caps; N, C: chain ends. Non-standard residues stand in square brackets, D forms with d. Residues, ends and D or L forms follow the SMILES beside them. *: point of attachment. Orn(4R-OH,5R-OH) = O=C([C@H](C[C@@H](O)[C@@H](O)N[*:3])N[*:1])[*:2]; hTyr(3S-OH,4S-OH) = N[C@H](C(=O)O)[C@H](O)[C@@H](O)c1ccc(O)cc1; Pro(3S-OH,4S-Me) = C[C@H]1CN[C@H](C(=O)O)[C@H]1O; Benzoyl(4-octyloxy) = CCCCCCCCOc1ccc(C(=O)*)cc1; X2 = CCCCCCCCCCCCCCS(=O)(=O)c1ccc(C(=O)*)cc1; X5 = CCCCCCCCCCCCS(=O)(=O)c1ccc(C(=O)*)cc1; X4 = CCCCCCCCCCS(=O)(=O)c1ccc(C(=O)*)cc1; X3 = CCCCCCCCCCCCCCSc1ccc(C(=O)*)cc1; X1 = CCCCCCCCCCCCSc1ccc(C(=O)*)cc1; Hyp = O=C(O)[C@@H]1C[C@@H](O)CN1; X8 = CCCCCCCCCOc1ccc(C(=O)*)cc1
Legend:
Candida albicans A-26 [1] = assay: Agar dilution method, MIC; type: cell-based
Description: (§1) Tables 10 and 11 give the results of the testing in vitro of the compounds of Examples 3 and 4 by agar-plate disc-diffusion methods. In Table 10 activity is measured by the size (diameter in mm) of the observed zone of inhibition of the microorganism produced by the test compound. In Table 11, activity is measured by the minimal inhibitory concentration (MIC) of the substance (μg/disc) required to inhibit growth of the test organism. Table 12 gives the results of the testing in vitro of the p-(n-octyloxy)benzoyl derivative of A30912A nucleus [Formula III, R^1 is p-(n-octyloxy)benzoyl] against five strains of Candida albicans by the agar dilution method. In Table 12 activity is measured by the minimal inhibitory concentration (MIC) of the substance (μg/ml) required to inhibit the test organism.

Candida albicans SBH16 = assay: Agar dilution method, MIC; type: cell-based
Description: as §1

Candida albicans SBH28 = assay: Agar dilution method, MIC; type: cell-based
Description: as §1

Candida albicans SBH29 = assay: Agar dilution method, MIC; type: cell-based
Description: as §1

Candida albicans SBH31 = assay: Agar dilution method, MIC; type: cell-based
Description: as §1

pathogenic fungi = assay: Antifungal activity, standard biological test procedures; type: cell-based; settings: cyclic nucleus lacking the linoleoyl side chain
Source text: The compounds of Formula III inhibit the growth of pathogenic fungi as evidenced by standard biological test procedures. The compounds are useful, therefore, for controlling the growth of fungi on environmental surfaces (as an antiseptic) or in treating infections caused by fungi. […] Thus, the compounds are particularly useful in treating infections caused by strains of C. albicans (candidosis). The compounds of Formula III have also shown activity in vitro in agar-plate disc diffusion tests against Trichophyton mentagrophytes, a dermatophytic organism. Activity has also been found in in vitro agar-plate disc-diffusion tests against Saccharomyces pastorianus, and Neurospora crassa. Certain compounds (as shown in Example 6, Table 9) give significant blood levels upon oral administration in mice.

[2] = system: Saccharomyces pastoranius X-52; assay: Agar plate disc diffusion test, zone of inhibition; type: cell-based, Saccharomyces pastorianus
Description: as §1
(§2) ^(a) Compounds were tested as suspension in methanol. The compounds
(§3) were tested at a concentration of 1 mg/ml. by dipping a 7mm disc into the
(§4) suspension and placing it on the agar surface. Incubation: 24-48 hours at
(§5) *Measurable zone of inhibition with regrowth of organism around disc.

Candida albicans A-26 [3] = assay: Agar plate disc diffusion test, zone of inhibition; type: cell-based; settings: 1 mg/ml suspension in methanol, 7mm disc; 24-48 hours at 25-37° C.
Description: as §1, §2, §3, §4, §5

Neurospora crassa 846 = assay: Agar plate disc diffusion test, zone of inhibition; type: cell-based
Description: as §1, §2, §3, §4, §5

[4] = system: Trichophyton mentagraphytes A-23; assay: Agar plate disc diffusion test, zone of inhibition; type: cell-based, Trichophyton mentagrophytes
Description: as §1, §2, §3, §4, §5

[5] = Blood levels after oral administration in mice; settings: mouse, 416 mg/kg
Description: In this test, mice are gavaged with a dose of 416 mg/kg of the test compound suspended in 33% PEG 400-water. At time intervals, blood samples are taken from the orbital sinus and are assayed for antibiotic activity as follows: A 7 mm. disc containing 20 μl of whole blood is placed on agar seeded with Aspergillus montevidensis A35137. After 40 hours incubation at 30° C. zones of inhibition from the blood samples are compared to a standard obtained from the test compound, and the amount of compound in the blood sample is calculated.

[6] = Toxicity on intravenous administration to a dog; type: in vivo; settings: 100 mg/kg per day for five days
[7] = X52, 1 mg/ml suspension in methanol, 7mm disc, 24-48 hours at 25-37° C., read-out: Size of Zone of Inhibition
[8] = Neurospora crassa, 846, 1 mg/ml suspension in methanol, 7mm disc, 24-48 hours at 25-37° C., read-out: Size of Zone of Inhibition
[9] = A23, 1 mg/ml suspension in methanol, 7mm disc, 24-48 hours at 25-37° C., read-out: Size of Zone of Inhibition

Compound CCCCCCCCCOc1ccc(C(=O)N[C@H]2C[C@@H](O)[C@@H](O)NC(=O)[C@@H]3[C@@H](O)[C@@H](C)CN3C(=O)[C@H]([C@@H](C)O)NC(=O)[C@H]([C@H](O)[C@@H](O)c3ccc(O)cc3)NC(=O)[C@@H]3C[C@@H](O)CN3C(=O)[C@H]([C@@H](C)O)NC2=O)cc1 (X8-[Orn(4R-OH,5R-OH)]T[Hyp][hTyr(3S-OH,4S-OH)]T[Pro(3S-OH,4S-Me)]; lactam 1-C) has an MIC (Candida albicans A-26 [1]; A26) of 0.312 µg/mL (≈ 0.299 µM), an MIC (Candida albicans SBH16; SBH16) of 0.312 µg/mL (≈ 0.299 µM) and an MIC (Candida albicans SBH28; SBH28) of 0.312 µg/mL (≈ 0.299 µM). It also gave an MIC (Candida albicans SBH29; SBH29) of 0.312 µg/mL (≈ 0.299 µM) and an MIC (Candida albicans SBH31; SBH31) of 0.312 µg/mL (≈ 0.299 µM).

With C[C@@H](O)[C@@H]1NC(=O)[C@H]([C@H](O)[C@@H](O)c2ccc(O)cc2)NC(=O)[C@@H]2C[C@@H](O)CN2C(=O)[C@H]([C@@H](C)O)NC(=O)[C@@H](N)C[C@@H](O)[C@@H](O)NC(=O)[C@@H]2[C@@H](O)[C@@H](C)CN2C1=O [A-30912A nucleus] (H-[Orn(4R-OH,5R-OH)]T[Hyp][hTyr(3S-OH,4S-OH)]T[Pro(3S-OH,4S-Me)]; lactam 1-C) the antifungal activity (pathogenic fungi) was “substantially devoid of antifungal activity”.

With CCCCCCCCOc1ccc(C(=O)N[C@H]2C[C@@H](O)[C@@H](O)NC(=O)[C@@H]3[C@@H](O)[C@@H](C)CN3C(=O)[C@H]([C@@H](C)O)NC(=O)[C@H]([C@H](O)[C@@H](O)c3ccc(O)cc3)NC(=O)[C@@H]3C[C@@H](O)CN3C(=O)[C@H]([C@@H](C)O)NC2=O)cc1 [drawing 108] ({Benzoyl(4-octyloxy)}-[Orn(4R-OH,5R-OH)]T[Hyp][hTyr(3S-OH,4S-OH)]T[Pro(3S-OH,4S-Me)]; lactam 1-C) the zone of inhibition at 1000 µg/mL [2, 7] was 18 mm, the “Size of Zone of Inhibition” value (Candida albicans A-26 [3]) was 28 mm and the zone of inhibition at 1000 µg/mL (Neurospora crassa 846; Neurospora crassa, 846, read-out: Size of Zone of Inhibition) was 23 mm.

In the case of CCCCCCCCCCS(=O)(=O)c1ccc(C(=O)N[C@H]2C[C@@H](O)[C@@H](O)NC(=O)[C@@H]3[C@@H](O)[C@@H](C)CN3C(=O)[C@H]([C@@H](C)O)NC(=O)[C@H]([C@H](O)[C@@H](O)c3ccc(O)cc3)NC(=O)[C@@H]3C[C@@H](O)CN3C(=O)[C@H]([C@@H](C)O)NC2=O)cc1 [drawing 112] (X4-[Orn(4R-OH,5R-OH)]T[Hyp][hTyr(3S-OH,4S-OH)]T[Pro(3S-OH,4S-Me)]; lactam 1-C), the zone of inhibition at 1000 µg/mL [2, 7] is reported as 16 mm, the “Size of Zone of Inhibition” value (Candida albicans A-26 [3]) is reported as 55 mm and the zone of inhibition at 1000 µg/mL (Neurospora crassa 846; [8]) is reported as 31 mm. For the same compound, the zone of inhibition at 1000 µg/mL [4, 9] was 32 mm.

With CCCCCCCCCCCCS(=O)(=O)c1ccc(C(=O)N[C@H]2C[C@@H](O)[C@@H](O)NC(=O)[C@@H]3[C@@H](O)[C@@H](C)CN3C(=O)[C@H]([C@@H](C)O)NC(=O)[C@H]([C@H](O)[C@@H](O)c3ccc(O)cc3)NC(=O)[C@@H]3C[C@@H](O)CN3C(=O)[C@H]([C@@H](C)O)NC2=O)cc1 [drawing 113] (X5-[Orn(4R-OH,5R-OH)]T[Hyp][hTyr(3S-OH,4S-OH)]T[Pro(3S-OH,4S-Me)]; lactam 1-C) the “Size of Zone of Inhibition” value (Candida albicans A-26 [3]) was 48 mm, the zone of inhibition at 1000 µg/mL (Neurospora crassa 846; [8]) was 37 mm and the zone of inhibition at 1000 µg/mL [4, 9] was 26 mm.

In the case of CCCCCCCCCCCCCCS(=O)(=O)c1ccc(C(=O)N[C@H]2C[C@@H](O)[C@@H](O)NC(=O)[C@@H]3[C@@H](O)[C@@H](C)CN3C(=O)[C@H]([C@@H](C)O)NC(=O)[C@H]([C@H](O)[C@@H](O)c3ccc(O)cc3)NC(=O)[C@@H]3C[C@@H](O)CN3C(=O)[C@H]([C@@H](C)O)NC2=O)cc1 [drawing 114] (X2-[Orn(4R-OH,5R-OH)]T[Hyp][hTyr(3S-OH,4S-OH)]T[Pro(3S-OH,4S-Me)]; lactam 1-C), the zone of inhibition at 1000 µg/mL ([2]; X52, read-out: Size of Zone of Inhibition) is reported as 23 mm, the “Size of Zone of Inhibition” value (Candida albicans A-26 [3]) is reported as 30 mm and the zone of inhibition at 1000 µg/mL (Neurospora crassa 846; [8]) is reported as 29 mm. The zone of inhibition at 1000 µg/mL ([4]; A23, read-out: Size of Zone of Inhibition) was 23 mm.

Work on CCCCCCCCCCCCSc1ccc(C(=O)N[C@H]2C[C@@H](O)[C@@H](O)NC(=O)[C@@H]3[C@@H](O)[C@@H](C)CN3C(=O)[C@H]([C@@H](C)O)NC(=O)[C@H]([C@H](O)[C@@H](O)c3ccc(O)cc3)NC(=O)[C@@H]3C[C@@H](O)CN3C(=O)[C@H]([C@@H](C)O)NC2=O)cc1 [drawing 149] (X1-[Orn(4R-OH,5R-OH)]T[Hyp][hTyr(3S-OH,4S-OH)]T[Pro(3S-OH,4S-Me)]; lactam 1-C) yielded an MIC (Candida albicans A-26 [1]; A26) of 0.625 µg/mL (≈ 0.567 µM), an MIC (Candida albicans SBH16; SBH16) of 0.625 µg/mL (≈ 0.567 µM) and an MIC (Candida albicans SBH28; SBH28) of 0.625 µg/mL (≈ 0.567 µM). It also gave an MIC (Candida albicans SBH29; SBH29) of 0.625 µg/mL (≈ 0.567 µM) and an MIC (Candida albicans SBH31; SBH31) of 0.625 µg/mL (≈ 0.567 µM).

CCCCCCCCCCCCCCSc1ccc(C(=O)N[C@H]2C[C@@H](O)[C@@H](O)NC(=O)[C@@H]3[C@@H](O)[C@@H](C)CN3C(=O)[C@H]([C@@H](C)O)NC(=O)[C@H]([C@H](O)[C@@H](O)c3ccc(O)cc3)NC(=O)[C@@H]3C[C@@H](O)CN3C(=O)[C@H]([C@@H](C)O)NC2=O)cc1 [drawing 150] (X3-[Orn(4R-OH,5R-OH)]T[Hyp][hTyr(3S-OH,4S-OH)]T[Pro(3S-OH,4S-Me)]; lactam 1-C) showed an MIC (Candida albicans A-26 [1]; A26, strain A-26, agar dilution, read-out: MIC) of 2.5 µg/mL (≈ 2.21 µM), an MIC (Candida albicans SBH16; strain SBH16, agar dilution, read-out: MIC) of 2.5 µg/mL (≈ 2.21 µM) and an MIC (Candida albicans SBH28; strain SBH28, agar dilution, read-out: MIC) of 2.5 µg/mL (≈ 2.21 µM). The MIC (Candida albicans SBH29; strain SBH29, agar dilution, read-out: MIC) was 2.5 µg/mL (≈ 2.21 µM) and the MIC (Candida albicans SBH31; strain SBH31, agar dilution, read-out: MIC) was 2.5 µg/mL (≈ 2.21 µM).

Work on CCCCCCCCOc1ccc(C(=O)N[C@H]2C[C@@H](O)[C@@H](O)NC(=O)[C@@H]3[C@@H](O)[C@@H](C)CN3C(=O)[C@H]([C@@H](C)O)NC(=O)[C@H]([C@H](O)[C@@H](O)c3ccc(O)cc3)NC(=O)[C@@H]3C[C@@H](O)CN3C(=O)[C@H]([C@@H](C)O)NC2=O)cc1 [drawing 181] ({Benzoyl(4-octyloxy)}-[Orn(4R-OH,5R-OH)]T[Hyp][hTyr(3S-OH,4S-OH)]T[Pro(3S-OH,4S-Me)]; lactam 1-C) yielded a Cmax [5] of 23000 ng/mL.

For CCCCCCCCOc1ccc(C(=O)N[C@H]2C[C@@H](O)[C@@H](O)NC(=O)[C@@H]3[C@@H](O)[C@@H](C)CN3C(=O)[C@H]([C@@H](C)O)NC(=O)[C@H]([C@H](O)[C@@H](O)c3ccc(O)cc3)NC(=O)[C@@H]3C[C@@H](O)CN3C(=O)[C@H]([C@@H](C)O)NC2=O)cc1 [p-(n-octyloxy)benzoyl derivative of A-30912A nucleus] ({Benzoyl(4-octyloxy)}-[Orn(4R-OH,5R-OH)]T[Hyp][hTyr(3S-OH,4S-OH)]T[Pro(3S-OH,4S-Me)]; lactam 1-C), the SGPT levels [6] was “increased SGPT levels were observed” and the “outward signs of toxicity” value [6] was “no outward signs of toxicity”.
